The target in one assay is EGFR L858R/T790M (Homo sapiens, UniProt P00533, L858R/T790M). The assay can be described thus: HTRF-based EGFR biochemical assay (L858R/T790M). The conditions noted are these: enzyme 0.02 nM, ATP 100 µM, 30 min preincubation. The protocol: (§1) EGFR biochemical activity measurements were carried out using the homogeneous time-resolved fluorescence (HTRF) assay (Cisbio). Inhibitors and DMSO normalizations were first dispensed to empty black low-volume 384-well plates (Corning) with D300 digital liquid dispenser (HP). All reactions were carried out at room temperature and solutions were added to plates with a Multidrop Combi Reagent Dispenser (ThermoFisher). The reaction mixture (10 µL final volume) contained 1 µM tyrosine kinase peptide-biotin substrate and mutant EGFR in a reaction buffer (50 mM HEPES pH 7.0, 5 mM MgCl2, 1 mM MnCl2, 0.01% BSA, 2 mM TCEP, 0.1 mM NaVO4). Enzyme concentrations were adjusted to accommodate varying kinase activities (L858R 0.1 nM, L858R/T790M 0.02 nM). Enzyme reaction solution (2× concentrations, 5 µL) was added to 384-well plates containing compounds and incubated for 30 mins. Enzyme reactions were initiated with the addition of 5 µL of ATP to a final concentration of 100 µM and reacted for 20 mins. Reactions were quenched with the addition of 10 µL of phospho-tyrosine antibody-Europium(III) cryptate (1-to-180 volume ratio) and Streptavidin-XL665 (46.7 nM) in EDTA-containing detection buffer, then incubated at room temperature for 1 hour, and read with a PHERAstar plate reader (excitation = 337 nm, emission = 620 nm and 665 nm). IC50 values were determined by inhibition curves (11-point curves from 1.0 µM to 0.130 nM or 23-point curves from 1.0 µM to 0.130 pM) in triplicate with non-linear least squares fit in GraphPad Prism 7.0d.
Chain of EGFR L858R/T790M (P00533 25-1210 T790M/L858R): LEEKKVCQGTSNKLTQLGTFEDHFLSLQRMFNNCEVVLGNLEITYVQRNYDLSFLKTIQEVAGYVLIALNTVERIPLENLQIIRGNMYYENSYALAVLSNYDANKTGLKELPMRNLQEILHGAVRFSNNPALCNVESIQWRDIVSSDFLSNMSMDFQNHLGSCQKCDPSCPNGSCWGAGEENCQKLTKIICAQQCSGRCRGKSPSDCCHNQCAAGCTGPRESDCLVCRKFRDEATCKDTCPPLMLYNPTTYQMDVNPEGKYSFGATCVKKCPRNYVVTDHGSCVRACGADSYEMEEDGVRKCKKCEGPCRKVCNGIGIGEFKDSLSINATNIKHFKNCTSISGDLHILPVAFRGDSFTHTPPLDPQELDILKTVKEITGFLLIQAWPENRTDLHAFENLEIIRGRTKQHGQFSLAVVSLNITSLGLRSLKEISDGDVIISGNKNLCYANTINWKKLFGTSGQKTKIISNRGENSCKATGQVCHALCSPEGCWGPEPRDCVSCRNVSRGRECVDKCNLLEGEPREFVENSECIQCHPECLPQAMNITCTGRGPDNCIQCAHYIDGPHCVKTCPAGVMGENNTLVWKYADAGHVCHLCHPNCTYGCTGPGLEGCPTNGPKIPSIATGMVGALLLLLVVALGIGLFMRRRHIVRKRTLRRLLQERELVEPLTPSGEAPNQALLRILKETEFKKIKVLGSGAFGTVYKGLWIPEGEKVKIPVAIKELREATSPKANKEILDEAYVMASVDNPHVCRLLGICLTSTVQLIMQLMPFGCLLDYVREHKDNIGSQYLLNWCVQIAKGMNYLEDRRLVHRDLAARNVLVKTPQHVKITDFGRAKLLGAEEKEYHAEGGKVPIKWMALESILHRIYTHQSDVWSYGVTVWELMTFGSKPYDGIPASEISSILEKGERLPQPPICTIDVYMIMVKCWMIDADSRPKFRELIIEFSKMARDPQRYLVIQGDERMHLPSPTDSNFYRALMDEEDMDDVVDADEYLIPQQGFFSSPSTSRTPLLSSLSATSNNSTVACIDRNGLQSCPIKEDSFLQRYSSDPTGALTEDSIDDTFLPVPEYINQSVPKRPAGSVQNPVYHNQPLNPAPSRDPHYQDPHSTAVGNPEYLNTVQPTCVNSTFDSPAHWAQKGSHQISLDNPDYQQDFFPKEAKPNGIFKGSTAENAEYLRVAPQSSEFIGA
For orientation: Time-resolved FRET reads energy transfer from a long-lived donor to a nearby acceptor.

Assay [1] has as its target EGFR mutant L858R/T790M Ba/F3 cells (Homo sapiens, UniProt P00533, T790M/L858R, cells depend on it). In words: Ba/F3 cell proliferation model (Cell Titer Glo), EGFR L858R/T790M. The format is cell-based, murine. The following applies: single agent, 72 hours; read-out: Cell IC50 BaF3 EGFR L858R/T790M. The text has this: (§2) The EGFR mutant L858R and L858R/T790M Ba/F3 cells have been previously described (Zhou, W., et al. Nature 462, 2009, 1070-1074). All cell lines were maintained in RPMI 1640 (Cellgro; Mediatech Inc., Herndon, CA) supplemented with 10% FBS, 100 units/mL penicillin, 100 units/mL streptomycin. The EGFR I941R mutation was introduced via site directed mutagenesis using the Quick Change Site-Directed Mutagenesis kit (Stratagene; La Jolla, CA) according to the manufacturer’s instructions. All constructs were confirmed by DNA sequencing. The constructs were shuttled into the retroviral vector JP1540 using the Cre-recombination system (Agilent Technologies, Santa Clara, CA). Ba/F3 cells were then infected with retrovirus per standard protocols, as described previously (Zhou, et al, Nature 2009). Stable clones were obtained by selection in puromycin (2 µg/ml).
(§3) Growth and inhibition of growth was assessed by the Cell Titer Glo assay (Promega, Madison, WI) and was performed according to the manufacturer’s instructions. The Cell Titer Glo assay is a luminescence-based method used to determine the number of viable cells based on quantitation of the ATP present, which is directly proportional to the amount of metabolically active cells present. Ba/F3 cells of different EGFR genotypes were exposed to compounds as a single agent or in combination with 1 µg/mL cetuximab for 72 hours and the number of cells used per experiment was determined empirically as has been previously established (Zhou, et al., Nature 2009). All experimental points were set up in triplicates in 384-well plates and all experiments were repeated at least three times. […] The curves were fitted using a non-linear regression model with a sigmoidal dose response.
A general note: ATP-based viability assays read luminescence as a measure of living cells.

In assay [2] the target is EGFR mutant L858R Ba/F3 cells (Homo sapiens, UniProt P00533, L858R, cells depend on it). The assay can be described thus: Ba/F3 cell proliferation model (Cell Titer Glo), EGFR L858R. In kind it is cell-based, murine. The conditions noted are these: single agent, 72 hours; read-out: Cell ICso BaF3 EGFR L858R.
Chain of EGFR mutant L858R Ba/F3 cells (P00533 whole entry L858R): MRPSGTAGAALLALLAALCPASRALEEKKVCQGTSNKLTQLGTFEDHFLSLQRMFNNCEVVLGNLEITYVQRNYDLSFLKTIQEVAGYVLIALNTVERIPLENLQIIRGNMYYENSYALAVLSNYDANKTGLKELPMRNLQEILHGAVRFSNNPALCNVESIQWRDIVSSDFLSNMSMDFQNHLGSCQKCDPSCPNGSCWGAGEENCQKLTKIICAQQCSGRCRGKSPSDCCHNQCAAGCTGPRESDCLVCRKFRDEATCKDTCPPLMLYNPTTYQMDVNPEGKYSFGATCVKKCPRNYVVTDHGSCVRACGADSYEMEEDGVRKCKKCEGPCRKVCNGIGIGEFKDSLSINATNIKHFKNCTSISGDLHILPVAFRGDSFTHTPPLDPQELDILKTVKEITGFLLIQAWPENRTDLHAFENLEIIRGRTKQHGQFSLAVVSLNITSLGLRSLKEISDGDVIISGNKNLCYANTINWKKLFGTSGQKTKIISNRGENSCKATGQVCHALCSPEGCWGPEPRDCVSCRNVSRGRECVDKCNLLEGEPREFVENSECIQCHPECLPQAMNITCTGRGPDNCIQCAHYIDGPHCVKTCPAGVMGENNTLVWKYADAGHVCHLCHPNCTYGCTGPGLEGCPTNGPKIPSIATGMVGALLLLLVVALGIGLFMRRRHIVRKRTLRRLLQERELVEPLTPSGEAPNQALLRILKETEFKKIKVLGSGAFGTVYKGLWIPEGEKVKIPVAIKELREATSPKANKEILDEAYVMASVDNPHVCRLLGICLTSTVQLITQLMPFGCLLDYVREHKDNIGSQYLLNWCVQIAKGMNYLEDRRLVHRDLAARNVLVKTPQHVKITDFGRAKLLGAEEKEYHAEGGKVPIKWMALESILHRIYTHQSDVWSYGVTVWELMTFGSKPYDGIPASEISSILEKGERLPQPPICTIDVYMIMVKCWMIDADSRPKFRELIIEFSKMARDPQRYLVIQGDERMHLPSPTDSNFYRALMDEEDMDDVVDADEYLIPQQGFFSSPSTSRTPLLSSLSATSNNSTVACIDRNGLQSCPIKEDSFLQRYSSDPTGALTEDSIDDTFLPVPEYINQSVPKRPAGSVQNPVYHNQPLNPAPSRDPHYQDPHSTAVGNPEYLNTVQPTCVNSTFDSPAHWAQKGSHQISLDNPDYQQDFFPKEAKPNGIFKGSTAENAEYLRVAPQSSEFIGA
From the text: as §2, §3

The next assay addresses EGFR L858R (Homo sapiens, UniProt P00533, L858R). The assay can be described thus: HTRF-based EGFR biochemical assay (L858R). The following applies: enzyme 0.1 nM, ATP 100 µM, 30 min preincubation. The protocol:
as §1

Where a name gives a salt, the structure may show the parent alone.

A word on the IC50: it is the midpoint of a concentration-inhibition curve.

Chain of EGFR L858R (P00533 25-1210 L858R): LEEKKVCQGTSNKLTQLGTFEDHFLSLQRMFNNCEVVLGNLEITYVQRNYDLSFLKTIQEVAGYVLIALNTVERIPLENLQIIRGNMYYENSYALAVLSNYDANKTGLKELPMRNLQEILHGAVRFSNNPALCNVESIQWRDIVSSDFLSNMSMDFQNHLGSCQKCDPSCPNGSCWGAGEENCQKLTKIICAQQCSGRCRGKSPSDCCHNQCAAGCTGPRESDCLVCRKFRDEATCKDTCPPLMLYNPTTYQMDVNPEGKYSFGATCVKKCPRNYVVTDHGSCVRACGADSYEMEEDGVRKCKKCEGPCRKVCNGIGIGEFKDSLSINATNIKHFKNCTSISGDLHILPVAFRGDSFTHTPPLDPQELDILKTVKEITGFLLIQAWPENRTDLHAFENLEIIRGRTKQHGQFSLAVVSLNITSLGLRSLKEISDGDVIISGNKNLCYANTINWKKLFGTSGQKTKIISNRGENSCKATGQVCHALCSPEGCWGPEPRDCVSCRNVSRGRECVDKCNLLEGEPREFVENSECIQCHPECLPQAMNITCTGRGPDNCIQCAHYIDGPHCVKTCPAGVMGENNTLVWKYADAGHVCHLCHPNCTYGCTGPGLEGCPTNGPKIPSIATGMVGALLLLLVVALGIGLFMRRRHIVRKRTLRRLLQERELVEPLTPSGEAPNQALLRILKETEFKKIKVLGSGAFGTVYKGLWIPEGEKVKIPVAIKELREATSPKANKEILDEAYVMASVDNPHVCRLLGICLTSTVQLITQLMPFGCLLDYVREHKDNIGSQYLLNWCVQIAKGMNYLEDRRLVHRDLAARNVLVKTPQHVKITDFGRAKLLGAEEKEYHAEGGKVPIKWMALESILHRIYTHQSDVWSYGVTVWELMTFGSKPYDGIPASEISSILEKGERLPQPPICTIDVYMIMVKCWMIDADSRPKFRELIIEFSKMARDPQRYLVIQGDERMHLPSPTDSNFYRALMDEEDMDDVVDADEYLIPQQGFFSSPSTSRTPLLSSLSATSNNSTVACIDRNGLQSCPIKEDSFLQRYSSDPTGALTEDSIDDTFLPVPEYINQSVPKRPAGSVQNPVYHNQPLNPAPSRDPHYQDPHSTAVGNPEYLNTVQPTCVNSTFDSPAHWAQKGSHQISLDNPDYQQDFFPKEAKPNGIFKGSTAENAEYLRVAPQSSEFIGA
Chain of EGFR mutant L858R/T790M Ba/F3 cells (P00533 whole entry T790M/L858R): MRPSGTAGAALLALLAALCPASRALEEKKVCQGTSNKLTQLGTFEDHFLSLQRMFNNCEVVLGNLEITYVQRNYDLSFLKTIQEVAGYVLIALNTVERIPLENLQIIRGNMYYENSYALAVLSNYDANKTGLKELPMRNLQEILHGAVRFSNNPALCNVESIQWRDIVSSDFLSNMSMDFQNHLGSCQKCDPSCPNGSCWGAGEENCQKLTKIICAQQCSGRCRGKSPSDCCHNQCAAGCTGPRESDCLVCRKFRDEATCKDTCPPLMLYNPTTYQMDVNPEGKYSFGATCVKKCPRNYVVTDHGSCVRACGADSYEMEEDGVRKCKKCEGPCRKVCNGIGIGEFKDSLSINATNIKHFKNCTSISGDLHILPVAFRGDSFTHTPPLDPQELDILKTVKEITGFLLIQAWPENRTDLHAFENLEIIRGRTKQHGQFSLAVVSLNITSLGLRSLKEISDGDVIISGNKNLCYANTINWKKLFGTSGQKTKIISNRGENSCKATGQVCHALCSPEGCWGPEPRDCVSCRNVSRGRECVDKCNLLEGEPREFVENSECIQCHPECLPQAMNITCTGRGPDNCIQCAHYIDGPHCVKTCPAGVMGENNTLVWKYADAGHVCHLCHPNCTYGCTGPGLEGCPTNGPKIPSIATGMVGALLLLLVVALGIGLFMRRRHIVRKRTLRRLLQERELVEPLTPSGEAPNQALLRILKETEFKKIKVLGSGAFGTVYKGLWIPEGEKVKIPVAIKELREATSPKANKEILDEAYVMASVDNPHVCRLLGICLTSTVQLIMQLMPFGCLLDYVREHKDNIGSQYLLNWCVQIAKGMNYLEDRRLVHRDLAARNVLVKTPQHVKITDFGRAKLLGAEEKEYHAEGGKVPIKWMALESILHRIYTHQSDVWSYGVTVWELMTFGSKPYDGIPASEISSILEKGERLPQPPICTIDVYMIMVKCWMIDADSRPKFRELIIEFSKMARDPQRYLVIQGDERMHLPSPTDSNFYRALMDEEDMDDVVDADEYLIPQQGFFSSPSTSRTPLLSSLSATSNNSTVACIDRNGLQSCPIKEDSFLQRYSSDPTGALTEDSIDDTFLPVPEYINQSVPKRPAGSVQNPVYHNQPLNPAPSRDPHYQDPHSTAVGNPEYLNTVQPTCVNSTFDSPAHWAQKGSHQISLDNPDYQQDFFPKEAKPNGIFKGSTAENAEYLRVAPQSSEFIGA

As to `CN1CCC(c2ccc(-c3cc4ccn(C(C(=O)Nc5nccs5)c5ccccc5)c(=O)c4s3)cc2)CC1` (centres unmarked) [Compound 007, 2-[2-[4-(1-methyl-4-piperidyl)phenyl]-7-oxo-thieno[2,3-c]pyridin-6-yl]-2-phenyl-N-thiazol-2-yl-acetamide;hydrochloride], the 50% inhibitory concentration (IC50) against EGFR L858R/T790M came to 0.6 nM; against EGFR L858R it was 3 nM. In addition, the GI50 in assay [1] came out at 570 nM; in assay [2], 360 nM.

Turning to `CN1CCC(c2ccc(-c3cc4ncn(C(C(=O)Nc5nccs5)c5ccccc5)c(=O)c4s3)cc2)CC1` (centres unmarked) [Compound 003, 2-(6-(4-(1-Methylpiperidin-4-Yl)Phenyl)-4-Oxothieno[3,2-d)Pyrimidin-3(4H)-Yl)-2-Phenyl-N-(Thiazol-2-Yl)Acetamide], the IC50 is 29 nM against EGFR L858R/T790M and 31 nM against EGFR L858R. Further, the GI50 came to 890 nM in assay [1] and 850 nM in assay [2].

As for `CN1CCC(c2ccc(-c3ccc4c(c3)CC(=O)N(C(c3nc5ccccc5[nH]3)c3cc(F)ccc3O)C4)cc2)CC1` (centres unmarked) [Compound 018, 2-[1H-benzimidazol-2-yl-(5-fluoro-2-hydroxy-phenyl)methyl]-6-[4-(1-methyl-4-piperidyl)phenyl]-1,4-dihydroisoquinolin-3-one], the IC50 was 8 nM at EGFR L858R/T790M and 6 nM against EGFR L858R. In addition, the GI50 in assay [1] came out at 480 nM; in assay [2] it was 530 nM.

Consider `CN1CCC(c2ccc(-c3cc4c(=O)n(C(C(=O)Nc5nccs5)c5ccccc5)ccc4s3)cc2)CC1` (centres unmarked) [Compound 005, 2-[2-[4-(1-methyl-4-piperidyl)phenyl]-4-oxo-thieno[3,2-c]pyridin-5-yl]-2-phenyl-N-thiazol-2-yi-acetamide], for which the IC50 against EGFR L858R/T790M worked out at 0.8 nM; against EGFR L858R, 3 nM. Moreover, the GI50 is 2040 nM in assay [1] and 1550 nM in assay [2].

In the case of `CN1CCC(c2ccc(-c3cc4c(=O)n(C(c5ccccc5)c5nc6ccccc6[nH]5)cnn4c3)cc2)CC1` (centres unmarked) [Compound 002, 3-((1H-Benzo[d]Imidazol-2-Yl)(Phenyl)Methyl)-6-(4-(1-Methylpiperidin-4-Yl)Phenyl)Pyrrolo [2,1-f][1,2,4]Triazin-4(3H)-One;Hydrochloride], the IC50 at EGFR L858R/T790M and against EGFR L858R was over 100 nM throughout. Further, the GI50 in assay [1] was determined as 2630 nM; in assay [2], 2240 nM.

Consider `CN1CCC(c2ccc(-c3cc4c(s3)C(=O)N(C(c3nc5ccccc5[nH]3)c3cc(F)ccc3O)CC4)cc2)CC1` (centres unmarked) [Compound 011, 6-[1H-benzimidazol-2-yl-(5-fluoro-2-hydroxy-phenyl)methyl]-2-[4-(1-methyl-4-piperidyl)phenyl]-4,5-dihydrothieno[2,3-c]pyridin-7-one;dihydrochloride], for which the figures for the half-inhibitory concentration (IC50) against EGFR L858R/T790M and against EGFR L858R were 2 nM and 6 nM, respectively. Moreover, the GI50 in assay [1] is 280 nM; in assay [2], 490 nM.

`CN1CCC(c2ccc(-c3cc4c(s3)CN(C(c3nc5ccccc5[nH]3)c3cc(F)ccc3O)C4=O)cc2)CC1` (centres unmarked) [Compound 013, 5-[1H-Benzimidazol-2-Yl-(5-Fluoro-2-Hydroxy-Phenyl)Methyl]-2-[4-(1-Methyl-4-Piperidyl)Phenyl]-6H-Thieno[2,3-c]Pyrrol-4-One;Dihydrochloride]: the IC50 is 14 nM on EGFR L858R/T790M and 9 nM at EGFR L858R. For the same compound, the GI50 in assay [1] came out at 750 nM; in assay [2], 1010 nM.

Take `CN1CCC(c2ccc(-c3cc4ccn(C(c5ccccc5)c5nc6ccccc6[nH]5)c(=O)c4s3)cc2)CC1` (centres unmarked) [Compound 008, 6-[1H-benzimidazol-2-yl(phenyl)methyl]-2-[4-(1-methyl-4-piperidyl)phenyl]thieno[2,3-c]pyridin-7-one;hydrochloride]: the half-maximal inhibitory concentration (IC50) against EGFR L858R/T790M was found to be 29 nM; against EGFR L858R, 27 nM. The GI50 was determined as 1670 nM in assay [1] and 1870 nM in assay [2].

The values are drawn from patent publication US20230212171A1, “ALLOSTERIC EGFR INHIBITORS AND METHODS OF USE THEREOF” (Dana-Farber Cancer Institute, Inc., priority 2020, published 2023).
